# Patent publication EP4613730A1, “LIPIDIC ALKYNYLCARBINOLS WITH ANTI-BACTERIAL AND ANTI-TUBERCULOSIS ACTIVITY” (priority 2024, dated 2025)
# Where two headings read alike, the source gives them in different places.
# What was measured:
# Assay type in all cases: cell-based
# [1] = Cytotoxicity evaluation on HCT-116 cell line (SRB); settings: human, HCT-116 cells, 72 hours treatment, read-out: Anti-HCT116 CC50
# Protocol: (§1) The biological activity of the compounds of the present invention were evaluated. The activity against mycobacteria (Mtb) was assessed by minimum inhibitory concentration values (MIC, µM) determination. The selectivity index (SI) is defined as: SI = (CC50)/(MIC) [formula] wherein CC50 refers to the half maximal cytotoxic concentration of compounds towards particular eukaryotic cells, either for HCT116 cells and/or VERO cells; MIC refers to the minimum inhibitory concentration of the compounds towards mycobacteria.
# Human HCT-116 colon cancer cells were seeded in 96-well plates (2500 cells/well) 24 hours before being treated for 72 hours with the tested compounds. Cells were grown and treated in DMEM 10% FBS. For each compound, 11 concentrations, corresponding to twofold serial dilutions from the maximum concentration, were evaluated, with each concentration tested in duplicate. DMSO was set at 0.5% final concentration in each well, including in the untreated conditions. At the end of the treatment, cells were fixed 1 hour at 4°C by addition of cold 10 % trichloroacetic acid to a final 3.33 % concentration, then washed 4 times with water. The plates were dried and the cells stained for 30 minutes with 0.057 % (wt/vol) Sulforhodamine B (SRB) in 1% acetic acid, then washed 4 times with 1% acetic acid and dried. The dye was resuspended by a 1 h 30 incubation in 200 µL of 10 mM Tris-base and the absorbance at 490 nm measured with a plate reader (µquant, Bio-tek). For normalization, the background value was subtracted to each value, the duplicates averaged and the untreated condition set to 100% cell viability. CC50 were computed from at least three independent experiments using the GraphPad Prism software using a non-linear regression to a four-parameter logistic curve (log[inhibitor] vs response; variable slope).
# [2] = test system: Mycobacterium tuberculosis strain H37Rv; test: Mycobacterial growth inhibition assay (colorimetric MTT micro assay, MIC)
# [3] = Cytotoxicity evaluation on Vero cell line (MTT); settings: Vero cells, read-out: Anti-VERO CC50
# Protocol: as §1
# Cytotoxicity evaluation of the tested molecules by MTT assay was performed on the Vero cell line. Briefly, cells (5.10^4 cells/mL) in 100 µL of complete medium [MEM supplemented with 10% fetal calf serum (FCS), 2 mM L-glutamine and antibiotics (100U/mL penicillin and 100 µg/mL streptomycin)] were seeded into each well of 96-well plates and incubated at 37 °C in a humidified 5% CO2 with 95% air atmosphere. After a 24 h incubation, 100 µL of medium with various product concentrations and appropriate controls were added and the plates were incubated for 72 h at 37 °C. Each plate-well was then microscope-examined for detecting possible precipitate formation before the medium was aspirated from the wells. 100 µL of MTT solution (0.5 mg/mL in complete MEM) were then added to each well. Cells were incubated for 1 h at 37 °C and the MTT solution was then removed, and DMSO (100 µL/well) was added to dissolve the resulting formazan crystals. Plates were shaken vigorously (300 rpm) for 5 min. The absorbance was measured at 570 nm with a microplate spectrophotometer (BIOTEK Eon). DMSO was used as blank and SDS as positive control. CC50 were calculated by non-linear regression analysis processed on dose-response curves, using TableCurve 2D V5 software.
# [4] = test system: M. abscessus; test: Antibacterial activity MIC, M. abscessus; settings: Mycobacteroides abscessus
# [5] = test system: E. coli; test: Antibacterial activity MIC, E. coli; settings: Escherichia coli
# [6] = test system: M. smegmatis; test: Antibacterial activity MIC, M. smegmatis; settings: Mycolicibacterium smegmatis
# [7] = test system: C. glutamicum; test: Antibacterial activity MIC, C. glutamicum; settings: Corynebacterium glutamicum
# [8] = test system: M. kansasii; test: Antibacterial activity MIC, M. kansasii; settings: Mycobacterium kansasii
# [9] = M. tuberculosis H37Rv, 7H9 broth, 6 days incubation then MTT 24 h, read-out: Anti-Mtb MIC
# [10] = M. tuberculosis (Table 4), read-out: Antibacterial activity MIC M. tuberculosis
# [11] = read-out: Antibacterial activity MIC M. tuberculosis
compound,measurement,setting,value
"CCCCCCCCCCC(O)CC#CC(O)C1CC1 (stereo not shown) [Compound 17, 1-Cyclopropylpentadec-2-yne-1,5-diol]",CC50 at 72 h,[1]; HCT-116 colon cancer cells,40 µM
same,MIC,[2]; [9],0.6 µM
same,CC50 at 72 h,[3]; African green monkey,44.5 µM
"C#CC(O)C#CCC(O)CCCCCCCCCC (stereo not shown) [Compound 14, Heptadeca-1,4-diyne-3,7-diol]",CC50 at 72 h,[1]; HCT-116 colon cancer cells,2 µM
same,MIC,[2]; read-out: Anti-Mtb MIC,0.6 µM
same,CC50 at 72 h,[3]; African green monkey,174 µM
"CCCCCCCCCCCCC#CC(O)C1CCCCC1 (stereo not shown) [Compound 27, 1-Cyclohexylpentadec-2-yn-1-ol]",CC50 at 72 h,[1]; HCT-116 colon cancer cells,60 µM
same,MIC,[2]; [9],10 µM
"CCCCCCCCCCC[C@H](O)C#C[C@H](O)CC [(R,S)-6, (3R,6S)-heptadec-4-yne-3,6-diol]",MIC,[2]; [9],2.5 µM
"CCCCCCCCCCCC(O)C#CCO (racemic) [Compound 1, Pentadec-2-yne-1,4-diol]",CC50 at 72 h,[1]; HCT-116 colon cancer cells,60 µM
same,MIC,[2]; [10],1.25 µM
same,MIC,[2]; [9],1.25 µM
same,MIC,[4],2.5 µM
same,CC50 at 72 h,[3]; African green monkey,89 µM
"CCCCCCCCCCCCC#CC(O)CC (stereo not shown) [Compound 22, Heptadec-4-yn-3-ol]",CC50 at 72 h,[1]; HCT-116 colon cancer cells,12 µM
same,MIC,[2]; [10],2.5 µM
same,MIC,[4],> 20 µM
same,CC50 at 72 h,[3]; African green monkey,> 50 µM
C#C[C@H](O)C#CCCCCCCCCCCCC [(S)-20],MIC,[5],> 10 µM
same,MIC,[6],2.5 µM
same,MIC,[7],10 µM
same,MIC,[2]; [11],1.2 µM
same,MIC,[8],1.2 µM
"C=CC(O)C#CC(O)CCCCCCCCCCC (stereo not shown) [Compound 2, Heptadec-1-en-4-yne-3,6-diol]",CC50 at 72 h,[1]; HCT-116 colon cancer cells,2 µM
same,MIC,[2]; read-out: Anti-Mtb MIC,1.25 µM
same,CC50 at 72 h,[3]; African green monkey,7.6 µM
"CCCCCCCCCCCCC#CC(O)c1ccccc1 (stereo not shown) [Compound 21, 1-Phenylpentadec-2-yn-1-ol]",CC50 at 72 h,[1]; HCT-116 colon cancer cells,50 µM
same,MIC,[2]; [9],1.2 µM
same,CC50 at 72 h,[3]; African green monkey,58.7 µM
"CCCCCCCCCCCCC#CC(O)C(CC)CC (stereo not shown) [Compound 25, 3-Ethyloctadec-5-yn-4-ol]",CC50 at 72 h,[1]; HCT-116 colon cancer cells,125 µM
same,MIC,[2]; [9],> 10 µM
"CCCCCCCCCCCCC#CCO [Comparative example A, reference compound]",CC50 at 72 h,[1],120 µM
same,MIC,[2]; [10],5 µM
same,MIC,[2]; [9],5 µM
same,MIC,[4],20 µM
same,CC50 at 72 h,[3]; monkey,187 µM
"CCCCCCCCCCC[C@@H](O)C#CCO [(R)-1, (R)-Pentadec-2-yne-1,4-diol]",MIC,[2]; [9],1.25 µM
C=C=C[C@H](O)C#CCCCCCCCCCCCC [(S)-19],MIC,[5],> 10 µM
same,MIC,[6],10 µM
same,MIC,[7],> 10 µM
same,MIC,[2]; [11],2.5 µM
same,MIC,[8],2.5 µM
"CCCCCCCCCCCCC#CC(O)C1CC1 (stereo not shown) [Compound 23, 1-Cyclopropylpentadec-2-yn-1-ol]",CC50 at 72 h,[1]; HCT-116 colon cancer cells,60 µM
same,MIC,[2]; [9],> 10 µM
same,CC50 at 72 h,[3]; African green monkey,158 µM
"CCCCCCCCCCC[C@H](O)C#CCO [(S)-1, (S)-Pentadec-2-yne-1,4-diol]",MIC,[2]; [9],1.25 µM
C=C=C[C@@H](O)C#CCCCCCCCCCCCC [(R)-19],MIC,[5],> 10 µM
same,MIC,[6],10 µM
same,MIC,[7],> 10 µM
same,MIC,[2]; [11],2.5 µM
same,MIC,[8],5 µM
"CCCCCCCCCCCC(O)C#CC(O)C1CCCCC1 (stereo not shown) [Compound 11, 1-Cyclohexylpentadec-2-yne-1,4-diol]",CC50 at 72 h,[1]; HCT-116 colon cancer cells,50 µM
same,MIC,[2]; [9],5 µM
"CCCCCCCCCCCC(O)C#CC(O)C1CCCC1 (stereo not shown) [Compound 10, 1-Cyclopentylpentadec-2-yne-1,4-diol]",CC50 at 72 h,[1]; HCT-116 colon cancer cells,20 µM
same,MIC,[2]; [9],5 µM
"CCCCCCCCCCCC(O)C#CC(O)C1CC1 (stereo not shown) [Compound 7, 1-Cyclopropylpentadec-2-yne-1,4-diol]",CC50 at 72 h,[1]; HCT-116 colon cancer cells,50 µM
same,MIC,[2]; [9],0.3 µM
same,CC50 at 72 h,[3]; African green monkey,43.9 µM
